Source: ChEMBL document CHEMBL3525964 (Drug Metab Dispos, 2012)

Assays:
Cytochrome P450 3A4 [1] = molecular target: T1, Cytochrome P450 3A4 (Homo sapiens, UniProt P08684); experiment: Normalized intrinsic clearance assessed as human recombinant CYP3A4-mediated drug depletion per pmol protein by LC-MS/MS method; assay type: ADME; conditions: recombinant enzyme
Cytochrome P450 2J2 [2] = molecular target: T2, Cytochrome P450 2J2 (Homo sapiens, UniProt P51589); experiment: Fraction metabolized assessed as human recombinant CYP2J2-mediated drug depletion by LC-MS/MS method relative to total normalized intrinsic clearance; assay type: ADME; conditions: recombinant enzyme
T2 sequence (P51589 whole entry): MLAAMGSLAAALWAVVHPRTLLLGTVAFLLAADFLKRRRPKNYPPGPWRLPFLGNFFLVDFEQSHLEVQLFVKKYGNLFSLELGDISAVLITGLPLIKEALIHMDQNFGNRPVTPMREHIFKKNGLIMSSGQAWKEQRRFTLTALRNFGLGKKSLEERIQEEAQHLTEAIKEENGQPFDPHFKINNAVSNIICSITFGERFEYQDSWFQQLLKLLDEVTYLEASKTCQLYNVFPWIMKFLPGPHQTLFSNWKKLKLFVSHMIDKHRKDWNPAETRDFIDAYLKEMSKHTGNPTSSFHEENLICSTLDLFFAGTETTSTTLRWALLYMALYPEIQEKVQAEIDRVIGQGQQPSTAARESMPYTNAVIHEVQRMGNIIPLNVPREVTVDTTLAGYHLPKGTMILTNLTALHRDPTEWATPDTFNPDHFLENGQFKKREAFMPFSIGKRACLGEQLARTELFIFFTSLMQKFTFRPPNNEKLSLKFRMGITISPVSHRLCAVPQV

Cytochrome P450 3A4 [3] = molecular target: T1, Cytochrome P450 3A4; experiment: Drug metabolism in human liver microsomes assessed as CYP3A4-mediated drug depletion in presence of CYP3A4 inhibitor ketoconazole by LC-MS/MS method; assay type: ADME
Homo sapiens [4] = experiment: Tmax in human at 15 mg, po administered as single dose by liquid scintillation counting method; assay type: ADME, organism-based; conditions: in vivo
Plasma [5] = experiment: Drug level in plasma of human treated with [14C}LY2452473 at 15 mg, po administered as single dose by LC-MS/MS method; assay type: ADME, organism-based; conditions: in vivo
Plasma [6] = experiment: Drug level in human plasma treated with [14C}LY2452473 at 15 mg, po after 8 hrs administered as single dose by HPLC analysis; assay type: ADME, organism-based; conditions: in vivo
Homo sapiens [7] = experiment: Apparent volume of distribution during terminal phase in human at 15 mg, po administered as single dose by liquid scintillation counting method; assay type: ADME, organism-based; conditions: in vivo
Homo sapiens [8] = experiment: Apparent total body clearance in human at 15 mg, po administered as single dose by liquid scintillation counting method; assay type: ADME, organism-based; conditions: in vivo
Plasma [9] = experiment: Drug level in human plasma treated with [14C}LY2452473 at 15 mg, po after 2 hrs administered as single dose by HPLC analysis; assay type: ADME, organism-based; conditions: in vivo
Cytochrome P450 2J2 [10] = molecular target: T2, Cytochrome P450 2J2; experiment: Normalized intrinsic clearance assessed as human recombinant CYP2J2-mediated drug depletion per pmol protein by LC-MS/MS method; assay type: ADME; conditions: recombinant enzyme
[11] = Total drug excretion in human treated with [14C}LY2452473 at 15 mg, po administered as single dose by HPLC analysis; assay type: ADME, organism-based; conditions: in vivo, read-out: Drug excretion
Homo sapiens [12] = experiment: AUC (0 to last) in human at 15 mg, po administered as single dose by liquid scintillation counting method; assay type: ADME, organism-based, Plasma; design: dose 15 mg, time 0 - last, route oral; conditions: in vivo
Cytochrome P450 2C8 = molecular target: T3, Cytochrome P450 2C8 (Homo sapiens, UniProt P10632); experiment: Drug metabolism assessed as human recombinant CYP2C8-mediated drug depletion by LC-MS/MS method; assay type: ADME; conditions: recombinant enzyme
T3 sequence (P10632 whole entry): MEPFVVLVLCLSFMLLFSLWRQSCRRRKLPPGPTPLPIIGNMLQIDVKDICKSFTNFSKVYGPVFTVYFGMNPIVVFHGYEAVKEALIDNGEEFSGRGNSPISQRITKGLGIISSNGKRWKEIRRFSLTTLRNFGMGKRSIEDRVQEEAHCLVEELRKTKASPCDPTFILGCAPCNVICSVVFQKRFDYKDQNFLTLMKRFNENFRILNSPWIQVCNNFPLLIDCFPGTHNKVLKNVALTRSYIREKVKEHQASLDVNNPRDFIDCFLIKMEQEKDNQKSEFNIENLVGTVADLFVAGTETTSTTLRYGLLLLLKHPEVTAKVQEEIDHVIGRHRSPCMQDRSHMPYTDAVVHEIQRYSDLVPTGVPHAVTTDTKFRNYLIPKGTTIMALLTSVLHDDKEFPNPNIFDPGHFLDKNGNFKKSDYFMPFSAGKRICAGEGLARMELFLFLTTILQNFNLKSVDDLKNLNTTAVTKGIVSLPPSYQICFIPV

Homo sapiens [13] = experiment: Terminal half life in human at 15 mg, po administered as single dose by liquid scintillation counting method; assay type: ADME, organism-based; conditions: in vivo

T1 sequence (P08684 whole entry): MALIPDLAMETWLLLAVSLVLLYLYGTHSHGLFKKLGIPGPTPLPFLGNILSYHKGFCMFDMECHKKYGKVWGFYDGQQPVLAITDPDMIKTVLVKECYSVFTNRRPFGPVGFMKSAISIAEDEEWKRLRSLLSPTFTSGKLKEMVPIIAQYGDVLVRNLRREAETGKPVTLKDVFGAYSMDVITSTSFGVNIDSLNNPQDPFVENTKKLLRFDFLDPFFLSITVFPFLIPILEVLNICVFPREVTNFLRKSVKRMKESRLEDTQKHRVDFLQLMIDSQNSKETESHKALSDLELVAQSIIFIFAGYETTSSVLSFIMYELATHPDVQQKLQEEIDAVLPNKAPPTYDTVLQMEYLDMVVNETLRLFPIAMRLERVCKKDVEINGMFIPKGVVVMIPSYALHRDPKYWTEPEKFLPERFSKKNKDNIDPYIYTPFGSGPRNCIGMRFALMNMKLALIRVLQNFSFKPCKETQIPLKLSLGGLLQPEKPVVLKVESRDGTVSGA

For `CC(C)OC(=O)N[C@H]1Cc2c(n(Cc3ccccn3)c3ccc(C#N)cc23)C1` [LY2452473], the CL (Cytochrome P450 3A4 [1]) was 80 µL/min, the Fm (Cytochrome P450 2J2 [2]) was 15% and the Drug metabolism (Cytochrome P450 3A4 [3]) was “metabolite_not_detected”. The Tmax (Homo sapiens [4]) was 2 h, the Drug metabolism (Plasma [5]) was “metabolite_detected” and the Drug uptake (Plasma [6]) was 42.36%. For the same molecule, the Vz/F (Homo sapiens [7]) was 444 L, the CLt/F (Homo sapiens [8]) was 11 L/h and the Drug uptake (Plasma [9]) was 72.93%. The CL (Cytochrome P450 2J2 [10]) was 18 µL/min, the dose excreted [11] was 1.84% and the AUClast (Homo sapiens [12]) was 1310 ng·h/mL. For the same molecule, the Drug metabolism (Cytochrome P450 2C8) was “metabolite_not_detected” and the “beta t1/2” value (Homo sapiens [13]) was 27 h.
